Like-named read-outs stand apart in the source and are kept apart here.
Legend:
11β-hsd-1 enzyme [1] = target: T1, 11β-hsd-1 enzyme (Homo sapiens, UniProt P28845); experiment: biochemical; conditions: read-out: % Inh @ 0.1 μM
Method: Percentage of inhibition was determined in a 100 mM Triethanolamine buffer, pH 8.0, 200 mM NaCl, 0.02% n-dodecyl β-D-maltoside and 5 mM β-ME. A typical reaction was carried on a Corning® u-bottom 96-well plate and is described as follows: 11β-hsd-1 enzyme (5 nM, final concentration) was pre-incubated in the presence of the inhibitor and NADPH (500 μM, final concentration) for at least 30 minutes
in the assay buffer. When pre-incubation was completed, the reaction was initiated by adding the regenerating system (2 mM Glucose-6-Phosphate, 1U/mL Glucose-6-Phosphate dehydrogenase, and 6 mM MgCl2, all the concentration reported are final in the assay buffer), and 3H-cortisone (200 nM, final concentration). After 60 minutes, 60 μL of the assay mixture was transferred to a second 96-well plate and mixed with an equal volume of dimethylsulfoxide to stop the reaction. A 15 μL aliquot from the reaction mixture was loaded into a C-18 column (Polaris C18-A, 50×4.6 mm, 5 μ, 180 Angstrom from Varian) connected to an automated High-throughput Liquid Chromatography instrument developed by Cohesive Technologies Inc of Franklin, Mass., with a […] model 3 Radio-HPLC detector from IN/US of Tampa, Fla. The substrate and product peaks were separated by using an isocratic mixture of 43:57 methanol to water (v/v) at a flow rate of 1.0 mL/min.
Percent Inhibition was calculated based on the following equation: (1-(3H-Cortisol peak area in the […] of inhibitor)×100).

11β-hsd-1 enzyme [2] = target: T1, 11β-hsd-1 enzyme; experiment: biochemical
Method: The 11β-hsd-1 assay was performed in a 100 mM Triethanolamine buffer pH 8.0, containing 200 mM NaCl, 0.02% n-dodecyl β-D-maltoside, 5% glycerol, 5 mM β-mercaptoethanol. A typical reaction for the determination of Kiapp values was carried at R.T. in a Corning® u-bottom 96-well plate and is described as follows: 11β-hsd-1 enzyme (5 nM, final concentration) was pre-incubated in the presence of the inhibitor and NADPH (500 μM, final concentration) for at least 30 minutes in the assay buffer. When pre-incubation was completed, the reaction was initiated by adding the regenerating system (2 mM Glucose-6-Phosphate, 1U/mL Glucose-6-Phosphate dehydrogenase, and 6 mM MgCl2, all the concentration reported are final in the assay buffer), and 3H-cortisone (200 nM, final concentration). After 60 minutes, 60 μL of the assay mixture was transferred to a second 96-well plate and mixed with an equal volume of dimethylsulfoxide to stop the reaction. A 15 μL aliquot from the reaction mixture was loaded into a C-18 column (Polaris C18-A, 50×4.6 mm, 5 μ, 180 Angstrom from Varian) connected to an automated High-throughput Liquid Chromatography instrument developed by Cohesive Technologies Inc, of Franklin, Mass. USA, with a β-RAM model 3 Radio-HPLC detector from IN/US, of Tampa, Fla. USA. The substrate and product peaks were separated by using an isocratic mixture of 43:57 methanol to water (v/v) at a flow rate of 1.0 mL/min.
The initial reaction velocities were measured by stopping the reaction at 60 min and by measuring the area of product formation in the absence and the presence of various concentrations of inhibitors. The Kiapp values were determined using the equation for tight-binding inhibitor developed by Morrison, J. F. (Morrison J. F. Biochim BiophysActa. 1969; 185: 269-86).
The radiolabeled [1,2-3H]-cortisone is commercially available from American Radiolabeled Chemicals Inc of St. Louis, Mo. USA. NADPH, Glucose-6-Phosphate, and Glucose-6-Phosphate dehydrogenase were purchased from Sigma®.
(Morrison J. F. Biochim Biophys Acta. 1969; 185: 269-86).

T1 sequence (P28845 whole entry, species assumed): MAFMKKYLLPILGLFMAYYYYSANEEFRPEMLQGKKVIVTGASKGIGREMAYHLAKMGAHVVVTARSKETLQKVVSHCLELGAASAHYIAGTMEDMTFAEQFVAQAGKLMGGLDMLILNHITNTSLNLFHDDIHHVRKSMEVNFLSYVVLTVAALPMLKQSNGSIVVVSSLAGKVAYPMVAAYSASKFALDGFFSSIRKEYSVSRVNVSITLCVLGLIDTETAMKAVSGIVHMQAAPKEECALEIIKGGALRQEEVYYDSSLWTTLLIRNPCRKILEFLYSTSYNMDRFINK

inhibition at 0.1 µM (11β-hsd-1 enzyme [1]) [%]	Ki (11β-hsd-1 enzyme [2]) [nM]	inhibition at 0.1 µM (11β-hsd-1 enzyme [1]; Table 1, inhibitor 0.1 μM) [%]	Structure (SMILES)
88.5	9		CCc1cccc(NS(=O)(=O)N2CCN(c3ccc(C#N)cn3)CC2)n1 [Example 3, 4-(5-cyanopyridin-2-yl)-N-(6-ethylpyridin-2-yl)piperazine-1-sulfonamide]
96.4	2.1		Cc1cccc(NS(=O)(=O)N2CCN(c3ccc(C(F)(F)F)cn3)CC2)n1 [Example 8]
86.5	14		Cc1cc(C)nc(NS(=O)(=O)N2CCN(c3ccc(C#N)cn3)CC2)c1 [Example 9]
79.9	25.5		Cc1cccc(NS(=O)(=O)N2CCc3ccc(S(C)(=O)=O)cc3CC2)n1 [Example 10]
95.5	2.8		Cc1cccc(NS(=O)(=O)N2CCc3ccccc3CC2)n1 [Example 11]
	8.6	100	CS(=O)(=O)c1ccc2c(c1)CCN(S(=O)(=O)Nc1ccc3ccccc3n1)CC2 [Example 12, 7-(Methylsulfonyl)-N-quinolin-2-yl-1,2,4,5-tetrahydro-3H-3-benzazepine-3-sulfonamide]
94.9	7.3		N#Cc1ccc(N2CCN(S(=O)(=O)Nc3ccc4ccccc4n3)CC2)nc1 [Example 13]
100	4.8		O=S(=O)(Nc1ccc2ccccc2n1)N1CCN(c2ccc(C(F)(F)F)cn2)CC1 [Example 14]
100	2		CCOC(=O)Cc1cccc(NS(=O)(=O)N2CCc3ccccc3CC2)n1 [Example 15, Ethyl {6-[(1,2,4,5-tetrahydro-3H-3-benzazepin-3-ylsulfonyl)amino]pyridin-2-yl}acetate]
100	2.4		O=S(=O)(Nc1cccc(CCO)n1)N1CCc2ccccc2CC1 [Example 16, N-[6-(2-hydroxyethyl)pyridin-2-yl]-1,2,4,5-tetrahydro-3H-3-benzazepine-3-sulfonamide]
	13	78.2	CCc1cccc(NS(=O)(=O)N2CCc3ccc(S(C)(=O)=O)cc3CC2)n1 [Example 18]
100	2.5		Cc1cc(N)nc(NS(=O)(=O)N2CCN(c3ccc(C#N)cn3)CC2)c1 [Example 20, N-(6-amino-4-methylpyridin-2-yl)-4-(5-cyanopyridin-2-yl)piperazine-1-sulfonamide]
90	22		Cc1cccc(NS(=O)(=O)N2CCCC(c3ccc(F)cc3)C2)n1 (centres unmarked) [Example 22]
100	19.8		Cc1cccc(NS(=O)(=O)N2CCN(c3ccc(C#N)cn3)[C@H](C)C2)n1 [Example 23, (3R)-4-(5-cyanopyridin-2-yl)-3-methyl-N-(6-methylpyridin-2-yl)piperazine-1-sulfonamide]
	63.5	50	Cc1cccc(NS(=O)(=O)N2CCC(F)(c3ccc(C#N)cc3)CC2)n1 [Example 25, 4-(4-cyanophenyl)-4-fluoro-N-(6-methylpyridin-2-yl)piper-idine-1-sulfonamide]
100	1.6		Cc1cccc(NS(=O)(=O)N2CC=C(c3ccc(C#N)cc3)CC2)n1 [Example 26, 4-(4-cyanophenyl)-N-(6-methylpyridin-2-yl)-3,6-dihydro-pyridine-1(2H)-sulfonamide]
100	0.66		Cc1cc(C)nc(NS(=O)(=O)N2CCN(c3ccc(C#N)cn3)[C@H](C)C2)c1 [Example 28]
	13	95	N#Cc1ccc(N2CCN(S(=O)(=O)Nc3cccc(CO)n3)CC2)nc1 [Example 29, 4-(5-cyanopyridin-2-yl)-N-[6-(hydroxymethyl)pyridin-2-yl]piperazine-1-sulfonamide]

Structure (SMILES)	inhibition at 0.1 µM (11β-hsd-1 enzyme [1]) [%]	Ki (11β-hsd-1 enzyme [2]) [nM]	inhibition at 0.1 µM (11β-hsd-1 enzyme [1]; Table 1, inhibitor 0.1 μM) [%]
CCN(CC)C(=O)Cc1cccc(NS(=O)(=O)N2CCc3ccccc3CC2)n1 [Example 17, N,N-diethyl-2-{6-[(1,2,4,5-tetrahydro-3H-3-benzazepin-3-ylsulfonyl)amino]pyridin-2-yl}acetamide]	100	5.7	
